Data published in ChEMBL document CHEMBL5325400 (Eur J Med Chem, 2023).
Calls of active or inactive are those of the source. The rule behind the calls is not given here.

Assays:
[1] = Clearance in Sprague-Dawley rat at 1 mg/kg, iv by LC-MS analysis; type: ADME, organism-based; details: in vivo
A549 [2] = assay: Residual cell migration in human A549 cells at 5 nM incubated for 12 hrs by crystal violet staining based transwell assay; details: A549, 12 h
MDA-MB-231 = assay: Antiproliferative activity against human MDA-MB-231 cells assessed as inhibition of cell growth measured after 48 hrs by MTT assay; type: functional, cell-based; details: MDA-MB-231, 48 h
[3] = Toxicity in BALB/c mouse xenografted with human A549 cells assessed as change in body weight at 5 mg/kg, ip administered every other day for 25 days; type: organism-based; details: in vivo, 600 h, time 25 day
A549 [4] = assay: Induction of cell cycle arrest in human A549 cells assessed as accumulation at G2 phase at 40 nM incubated for 24 hrs by PI staining based flow cytometry (Rvb= 12.49%); type: functional
A549 [5] = assay: Induction of cell cycle arrest in human A549 cells assessed as accumulation at S phase at 40 nM incubated for 24 hrs by PI staining based flow cytometry (Rvb= 20.94%); type: functional
A549 [6] = assay: Residual cell migration in human A549 cells at 40 nM incubated for 12 hrs by crystal violet staining based transwell assay; details: A549, 12 h
B16-F10 [7] = assay: Antiproliferative activity against mouse B16-F10 cells assessed as inhibition of cell growth measured after 48 hrs by MTT assay; type: functional, cell-based; details: B16-F10, 48 h
B16-F10 [8] = assay: Antimigratory activity against mouse B16-F10 cells assessed as inhibition of cell migration at 20 nM and incubated for 12 hrs by scratch wound healing assay (reference value: 81.9 +/- 0.64%); type: functional; set-up: scale not given: the % may be the effect or the level left
A549 [9] = assay: Antimigratory activity against human A549 cells assessed as inhibition of cell migration at 10 nM and incubated for 12 hrs by scratch wound healing assay (reference value: 29.5 +/- 1.34%); type: functional; set-up: scale not given: the % may be the effect or the level left
A549 [10] = assay: Antiproliferative activity against human A549 cells expressing lentivirus RNAi VTI-96658 assessed as inhibition of cell growth measured after 48 hrs by MTT assay; type: functional, cell-based
A549 [11] = assay: Inhibition of cell migration in human A549 cells assessed as total number of cells migrated at 5 nM incubated for 12 hrs by crystal violet staining based transwell assay (reference value: 724 +/- 16); type: functional
A549 [12] = assay: Inhibition of cell migration in human A549 cells assessed as total number of cells migrated at 40 nM incubated for 12 hrs by crystal violet staining based transwell assay (reference value: 724 +/- 16); type: functional
[13] = Toxicity in BALB/c nude mouse xenografted with human A549 cells assessed as pathological changes in liver at 5 to 10 mg/kg, ip administered every other day for 25 days by hematoxylin and eosin staining based microscopic analysis; type: organism-based; details: in vivo, 600 h, dose 5-10 mg/kg, time 25 day
Tubulin (Homo sapiens) = Tubulin (Homo sapiens) (UniProt P68371+Q9H4B7+P0DPH7+P68366+Q13509+Q71U36+P04350+Q3ZCM7+P07437+P68363+Q9BQE3+Q6PEY2+Q13885+Q9BVA1+Q9BUF5); assay: Inhibition of tubulin polymerization in human A549 cells assessed as microtubule network polymerization at 100 nM measured after 18 hrs by Alexa Fluor 488 and DAPI staining based confocal microscopic analysis; type: cell-based
A549 [14] = assay: Antitumor activity against human A549 cells xenografted in BALB/c mouse assessed as decrease in CD-31 expression in tumor at 10 mg/kg, ip administered every other day for 25 days by immunohistochemistry analysis; type: functional, organism-based; details: time 25.0 day

clearance [1]: 69.8 mL/min/kg
IC50 (MDA-MB-231): 4.4 nM
IC50 (B16-F10 [7]): 3.3 nM
inhibition (Tubulin (Homo sapiens)): Active
SMILES: COc1cccc(Nc2cc(Nc3cccc(NC(=O)C4CC4)c3)ncn2)c1
level, % of control at 0.005 µM (A549 [2]): 91.5%
Activity [3]: Non-Toxic
Activity (A549 [4]): 53.15%
Activity (A549 [5]): 15.31%
level, % of control at 0.04 µM (A549 [6]): 32.9%
Activity (B16-F10 [8]): 39.7%
Activity (A549 [9]): 15.8%
Activity (A549 [10]): Active
Activity (A549 [11]): 635
Activity (A549 [12]): 157
Activity [13]: Non-Toxic
Activity (A549 [14]): Active
